These are literature values, as cited in patent US11224631B2, “Ready-to-use Carfilzomib compositions” (Orbicular Pharmaceutical Technologies Pvt. Ltd., priority 2017, dated 2022).

For `CC(C)C[C@H](NC(=O)[C@H](CCc1ccccc1)NC(=O)CN1CCOCC1)C(=O)N[C@@H](Cc1ccccc1)C(=O)N[C@@H](CC(C)C)C(=O)[C@@]1(C)CO1` [Carfilzomib], the Aqueous solubility result is “low aqueous solubility”.
